Source: ChEMBL document CHEMBL3507680, “University of Dundee, Gates Library screen for HepG2 cell viability”

Assay: Human HepG2 cell viability assay in 384 well format
Assay type: toxicity, cell-based
Parameters: dose 125 nL, time 70.5 hour; cytotoxicity at 70.5 h: concentration not given beside the values
Details: HepG2 cells, read-out: Inhibition

| SMILES | cytotoxicity at 70.5 h [%] |
| --- | --- |
| CC1CN(c2ncccc2C(=O)Nc2cccc3c2CCCC3)CCN1 (stereo not drawn) | -5.69 |
| OCCCN1CCCC1c1cccc(Br)c1 (stereo not drawn) | -4.27 |
| CCC(=O)N1CCC1c1cc(NC2CCCC2)nc(C)n1 (stereo not drawn) | -2.68 |
| CCc1cnc(C)nc1NCCN1CCOCC1 | -0.575 |
| O=C(COCC1CC1)N1CCN(C(=O)Cc2ccccn2)CC1 | -1.46 |
| CCc1cnc(CN(C)C2CCN(CCNS(=O)(=O)CC)C2)o1 (stereo not drawn) | 2.11 |
| COc1c(C)cnc(CN2CCOC(Cn3cncn3)C2)c1C (stereo not drawn) | -3.24 |
| Cc1cc(CN2CC[C@H]3[C@H]2CCN3S(C)(=O)=O)oc1C | -8.76 |
| COc1cc(N2CCC(c3nccn3Cc3cccnc3)CC2)ncn1 | -5.38 |
| c1ccc(-c2nc(CN3CCCC3Cn3cccn3)no2)cc1 (stereo not drawn) | 1.06 |
| c1cnc(N2CCOCC3(CCCN(CC4CCOCC4)C3)C2)nc1 (stereo not drawn) | -1.71 |
| CN(Cc1ccccc1-n1cccn1)c1nc(N)nc2c1CCNCC2 | 4.77 |
| Cc1nn(C)c(C)c1C1COCCN1c1ncncc1Br (stereo not drawn) | -4.79 |
| Cc1ccc(OCCC(=O)N(C)CC(=O)Nc2cc(C)on2)c(C)c1 | -4.37 |
| CC(=O)N(C/C=C/c1ccccc1)CCO | 7.41 |
| N#Cc1ccc(N2CCC(OCCc3ccccc3)CC2)nc1 | -13.8 |
| CCCn1cc(CN2CCC(c3[nH]ncc3S(C)(=O)=O)C2)cn1 (stereo not drawn) | -7.48 |
| CN(Cc1nnnn1C1CC1)CC1COc2ccccc2O1 (stereo not drawn) | -0.558 |
| N#Cc1ccnc(N2CCN(CC(O)c3ccc(F)cc3)CC2)c1 (stereo not drawn) | -0.587 |
| CC(C)(C)CNC(=O)c1ccc(C(=O)O)nc1 | -9.27 |

| SMILES | cytotoxicity at 70.5 h [%] |
| --- | --- |
| O=c1[nH]c(NCc2cccc(OC(F)F)c2)nc2c1CCNC2 | -23.8 |
| CCn1c(C)cc(C(=O)NCc2cccc(NS(C)(=O)=O)c2)c1C | 16.2 |
| CC(C)CCN1CCC2(CC1)CN(C(=O)c1cnccn1)CCO2 | 1.9 |
| CNC(=O)c1ccc(CNC(=O)c2cc(C(C)C)n(C)n2)cc1 | 10.9 |
| CN(C)CCNC(=O)Cn1cnc2cc(NC(=O)C3CC3)ccc21 | -10.6 |
| O=C(CCCNC(=O)Nc1ccc(F)cc1)Nc1cn[nH]c1 | -7.73 |
| COc1ccc(CC(=O)N2CCCCC2Cn2cc(C)cn2)cc1F (stereo not drawn) | 2.82 |
| COc1ccc(OC)c(C(=O)N2C[C@H]3CC[C@@H]2CN(C)C3)c1 | 20.2 |
| CC(=O)N(Cc1ncc(C)o1)C1CCN(Cc2ccncc2Cl)C1 (stereo not drawn) | -1.73 |
| O=C(NCCN1CCCCCC1=O)c1ccn(-c2ccc(F)cc2)n1 | -6.58 |
| O=C(NC1CCNC1)C1(N2CCCCC2)Cc2ccccc2C1 (stereo not drawn) | 1.09 |
| CCn1ccnc1CN(C)Cc1nc(CCC(C)C)no1 | 1.4 |
| Cc1c(C(=O)NC(C)CC(=O)c2cccs2)cnn1C (stereo not drawn) | 19.6 |
| COCCn1cc(NCc2c[nH]nc2C(C)(C)C)cn1 | -4.3 |
| Cc1nn(C)c(C)c1CCC(=O)N1CCc2sccc2C1 | 23.2 |
| CN1CCCN(CC(=O)N2CCc3[nH]c(-c4ccccc4)nc3C2)CC1 | -1.3 |
| Cc1nc(S(=O)(=O)CCn2cccn2)n(C2CCCC2)c1C | 10.5 |
| Cc1cc(F)ccc1S(=O)(=O)NCC(O)c1cccn1C (stereo not drawn) | 0.803 |
| O=C(C1CCOC1)N1CCN(Cc2cccnc2)c2ncccc2C1 (stereo not drawn) | -7.36 |
| O=C1CCCN1Cc1ncn2c1CN(C(=O)NC1CCCC1)CCC2 | 5.73 |

| SMILES | cytotoxicity at 70.5 h [%] |
| --- | --- |
| COC(=O)c1ccc2ccn(CC3COCCO3)c(=O)c2c1 (stereo not drawn) | -8.18 |
| CC(=O)N1CCc2nc(-c3ccccc3)nc(NC(C)C)c2CC1 | -13.5 |
| CNc1nc2c(s1)C(c1ccccc1F)CC(=O)N2 (stereo not drawn) | 9.16 |
| Cn1nc(Cn2cccn2)c2c1CN(Cc1ccoc1)C2 | -3.73 |
| CCCc1nc(CN2CCCN(Cc3nccn3C)CC2)no1 | -14.9 |
| O=C(NC1CC1)[C@@H]1CCO[C@@H]2CCN(CCc3ccccc3)C[C@@H]21 | -6.53 |
| CCc1cnc(N2C[C@H]3C[C@H](C(=O)NC)[C@@H](C2)O3)nc1 | -1.27 |
| O=C(c1ccncc1)N1CCCn2nnc(Cn3cccn3)c2C1 | -8.56 |
| Cc1nc(N2CCCC2C(=O)NC(C)(C)CO)nc2ccccc12 (stereo not drawn) | -7.7 |
| Cc1ccn(CC(=O)NCCCOc2ccccc2F)c(=O)c1 | -7.65 |
| CC(C)c1noc(C(C)Nc2nccc(CCC(F)(F)F)n2)n1 (stereo not drawn) | -10.8 |
| O=C(Cc1ccc(F)c(Br)c1)N1CCN(CCO)CC1 | -3.28 |
| CCS(=O)(=O)NCCNC(=O)c1cc(Cl)c2c(c1)OCCCO2 | -9.4 |
| Cc1nn(C)c2cn(CC(=O)N3CCN(c4ccccc4)CC3)nc12 | 7.34 |
| CSc1ccc(CNC(c2ccc(F)cc2)c2nccn2C)cc1 (stereo not drawn) | 0.212 |
| COC(=O)CC1CSCCN1C(=O)CCc1c(C)nn(C)c1C (stereo not drawn) | -7.68 |
| COc1cccc(-c2n[nH]c3c2CN(C(=O)c2cc(C)n(C)n2)CC3)c1 | -7.15 |
| CCc1nn(C)c(Cl)c1CN1CCN(c2ccc(C(N)=O)cn2)CC1 | -8.09 |
